According to US20020164581A1 (priority 2001, published 2002):

Experiments:
[1] = test system: glutathione peroxidase (GPX); experiment: GPX activity in cell lysate (NADPH oxidation); type: cell-based, bovine
Experimental: (§1) Cells pretreated with different concentrations of E2 for 24 hours were harvested in a solution containing 50 mM Tris-HCl (pH 7.4), 1 mM EDTA, 2 μg/ml pepstatin A, 10 μg/ml benzamidine, and 10 μg/ml trypsin inhibitor. The cells were then lysed on ice by sonication at a setting of 50 mW, with 3×15 set cycles using a Cole-Parmer Ultrasonic Homogenizer (Chicago, Ill.). Protein concentrations in the samples were determined by the Bradford method with bovine serum albumin as a standard (Bradford, Anal. Biochem. 72:248-254, 1976).
GPX activity was determined by a modified method of Flohe and Gunzler (Methods Enzymol. 105:114-121, 1984). One unit of GPX activity is defined as the amount of protein that oxidizes 1 nmole of β-NADPH per minute. In this assay, 100 μl of cell homogenate (about 100 μg protein) was added to 800 μl of phosphate buffer (0.1 M NaH2PO4, 0.1 M Na2HPO4, 0.1 mM EDTA, pH 7.0) containing 12.5 mM glutathione (reduced form, GSH), 0.2 mM β-nicotinamide adenine dinucleotide phosphate (reduced form, β-NADPH), and 0.34 U glutathione reductase. This mixture was pre-incubated at 37 C for 10 minutes and then 100 μl of 12 mM t-butyl hydroperoxide was added. The absorbency of the mixture was determined at 340 nm for 3 minutes. The molar extinction coefficient of 6.22 mM/cm was used to determine the activity of GPX.

[2] = test system: glutathione reductase (GR); experiment: GR activity in cell lysate (NADPH oxidation); type: cell-based, bovine
Experimental: as §1
GR activity was determined by a modified method of Carlberg and Mannervik (Methods Enzymol. 11 3:484-490, 1985). One unit of GR activity is defined as the amount of protein that oxidizes 1 nmole of β-NADPH per minute. Briefly, 50 μl of 2 mM β-NADPH in 10 mM Tris buffer (pH 7.0) was added to a cuvette containing 50 μl of 20 mM glutathione (oxidized ofrm, GSSG) in phosphate buffer (0.1 M NaH2PO4, 0.1 M Na2HPO4, 0.1 mM EDTA, pH 7.0) and 800 μl of phosphate buffer. Following the addition of cell homogenate (about 100 μg protein/100 μl) the final mixture was measured at 340 nm for 3 minutes. The molar extinction coefficient of 6.22 mM/cm was used to determine the activity of […].

[3] = test system: endothelial nitric oxide synthase; details: cited from earlier work
LDL = details: 5-50 μM; oxidation by copper ions, monocytes, or endothelial cells; cited from earlier work
[4] = test system: bovine aortic endothelial cells (bAECs)
Experimental: Primary cultures of bAECs were established from five female beef cattle (ranging in age from 1 to 2 years old) according to the method of Fenselau and Mello (Cancer Res. 36:3269-3273, 1976). Pooled cells were routinely maintained under humidified air (5% CO2) at 37° C. in Dulbecco's modified medium supplemented with 10% fetal bovine serum (FBS). Cells from the second to the fifth passages were used in these studies.
In the studies in which male and female bAECs were compared, batches of bAECs were independently established from 5 female and 4 male beef cattle (ranging in age from 1 to 2 years old) according to the method of Fenselau and Mello (Cancer Res. 36:3269-3273, 1976). Otherwise, the cells were treated and assessed as described in the paragraph above.
Prior to E2 pretreatment, cells were grown in phenol red-free DMEM supplemented with 10% dextran/charcoal-stripped FBS for at least 1 passage (3-4 days). Phenol red-free Dulbecco's modified medium was used to avoid potential estrogenic interference. Serum steroid deprivation was conducted according to the conditions described by Yeh et al. (Proc. Natl. Acad. Sci. USA 95:5527-5532, 1998). The E2 level in the stripped serum was assayed using an [^125I] 17β-estradiol radioimmunoassay kit (TKE21, Diagnostic Products Corporation, Los Angeles, Calif.). […] The cells grown in E2-free environments were plated onto Falcon 24-well Primariae™ plates at a density of 5×10^4 cells/well. E2 in dimethylsulfoxide (DMSO) was added to each well at final concentrations ranging from 1 nM to 10 μM 3 hours after plating, and the cells were then incubated for 24 hours (a duration commonly used for the studies of the genomic effects of E2) at 37° C. Control cells were treated with a corresponding amount of DMSO (a final concentration 0.05%).
Prior to oxidative challenge, E2-containing media was removed, and the cells were rinsed with PBS twice and re-fed with serum-free fresh medium. Subsequently, paraquat was added to the cells at the indicated doses (0.1-2.0 mM) for 3 hours. The oxidative challenge was terminated by aspiration of the oxidant-containing medium and quickly rinsing the cells twice with PBS. The cells were allowed to recover for 48 hours in medium supplemented with 10% regular FBS to exclude the possibility that different concentrations of E2 interfere with the cellular recovery processes.
Cell survival after oxidative challenge was assessed with a 3-(4,5-dimethylthiazol-2-yl) 2,5 diphenyltetrazolium bromide (MTT) assay in which the mitochondrial dehydrogenase activity of viable cells reduces MTT to a blue formazan product (Carmichael et al. Cancer Res. 47:936-942, 1987). Our prior conditions were employed (Si et al., Endocrine in press, 2001). Briefly, cells were treated with 1/10 volume of MTT solution (5 mg/ml in PBS) and incubated at 37° C. for 2 hours. The supernatant was then removed, and 600 μl of lysis buffer (50% dimethyl formamide, 5% sodium dodecyl sulphate, 0.35 M acetic acid, 50 mM HCl) was added to each well. Following cell lysis, the absorbency was measured at 570 nm and used as an indicator of relative cell survival. The surviving fraction was calculated as compared to the cells without paraquat challenge.
Two experimental groups were created. In the first group, E2 was added only during the 24-hour pretreatment period. In the second group, E2 was added only during the 3-hour paraquat exposure.

[5] = 1 nM E2 pretreatment (Example 8)
[6] = female bAECs, 24 h 1 nM E2 (Example 12)
[7] = 24 h pretreatment, paraquat challenge

C[C@]12CC[C@@H]3c4ccc(O)cc4CC[C@H]3[C@@H]1CC[C@@H]2O [E2, 17β-estradiol]
GPX activity elevation relative to untreated cells [1, 5]: ~2 fold | GPX activity increase [1, 6]: ~3 fold | GR activity elevation relative to untreated cells [2, 5]: ~3 fold | GR activity increase [2, 6]: ~2 fold | optimal concentration of E2 for endothelial nitric oxide synthase induction [3]: 1 to 10 nM | effect on LDL oxidation (LDL): inhibit LDL oxidation | E2 dosage that defended cells when present during oxidative challenge [4]: 10 µM | oxidant protection with E2 present during paraquat exposure [4]: mild but notable oxidant protection | oxidative protection after brief preincubation [4]: not effective in providing oxidative protection | oxidative resistance (MTT survival) [4]: marked augmentation of oxidative resistance | protection against subsequent oxidative challenge [4]: acquired significant protection against subsequent oxidative challenge | resistance to paraquat toxicity (cell survival) [4]: enhanced resistance to the toxic effect of paraquat | E2 concentration of optimal protection [4, 7]: 1 to 10 nM | E2 dosage at which protection gradually declined in magnitude [4, 7]: about 1 μM | protection after brief estrogenic exposure ([4]; E2 30 minutes only, washed, male or female endothelial cells): No protection by E2 | LD50 of paraquat toxicity in E2-pretreated cells ([4]; cells pretreated with 1 nM E2 for 24 h): about 1 mM | magnitude of protection at elevated E2 ([4]; female bAECs, E2 0.1-10 μM, P<0.05 vs. 1 nM): gradually decreased | protection against paraquat challenge ([4]; male bAECs, E2 pretreatment at any tested concentration): no protection was seen
